Assay results taken from patent US20260001847A1, “HERBICIDAL QUINOLONE DERIVATIVES” (SYNGENTA CROP PROTECTION AG, priority 2022, published 2026).
Marks after values point to notes of the source that are not given here.

Columns and labels:
Type in all cases: in vivo
[1] = system: Ipomoea hederacea (IPOHE); test: Pre-emergence Test; conditions: evaluated after 13 days
[2] = system: Setaria faberi (SETFA); test: Pre-emergence Test; conditions: 1000 g/ha, evaluated after 13 days
[3] = system: Echinochloa crus-galli (ECHCG); test: Pre-emergence Test; conditions: 1000 g/ha, evaluated after 13 days
[4] = system: Zea mays (ZEAMX); test: Pre-emergence Test; conditions: 1000 g/ha, evaluated after 13 days
[5] = system: Amaranthus retoflexus (AMARE); test: Pre-emergence Test; conditions: evaluated after 13 days
[6] = system: Amaranthus palmeri (AMAPA); test: Pre-emergence Test; conditions: evaluated after 13 days
[7] = system: Amaranthus palmeri (AMAPA); test: Post-emergence Test; conditions: evaluated after 13 days
Protocol: (§1) Seeds of a variety of test species are sown in standard soil in pots (Abutilon theophrasti (ABUTH), Ipomoea hederacea (IPOHE). Setaria faberi (SETFA), Echinochloa crus-galli (ECHCG), Zea mays (ZEAMX), Amaranthus retoflexus (AMARE), Solanum nigrum (SOLNI), Lolium perenne (LOLPE), Amaranthus palmeri (AMAPA)). After 8 days cultivation under controlled conditions in a glasshouse (at 24° C./16° C., day/night-; 14 hours light; 65% humidity), the plants are sprayed with an aqueous spray solution derived from the formulation of the technical active ingredient in acetone/water (50:50) solution containing 0.5% Tween 20 (polyoxyethylene sorbitan monolaurate, CAS RN 9005-64-5). Compounds are applied at 1000 g/ha unless otherwise stated. The test plants are then grown in a glasshouse under controlled conditions in a glasshouse (at 24° C./16° C., day/night; 14 hours light; 65% humidity) and watered twice daily. After 13 days the test is evaluated for the percentage damage caused to the plant. The biological activities are shown in the following table on a five-point scale (5=81-100%; 4=61-80%; 3=41-60%; 2=21-40%; 1=0-20%; -=not tested).

[8] = system: Amaranthus retoflexus (AMARE); test: Post-emergence Test; conditions: evaluated after 13 days
Protocol: as §1

[9] = system: Echinochloa crus-galli (ECHCG); test: Post-emergence Test; conditions: evaluated after 13 days
Protocol: as §1

[10] = system: Ipomoea hederacea (IPOHE); test: Post-emergence Test; conditions: evaluated after 13 days
Protocol: as §1

[11] = system: Setaria faberi (SETFA); test: Post-emergence Test; conditions: evaluated after 13 days
Protocol: as §1

[12] = system: Zea mays (ZEAMX); test: Post-emergence Test; conditions: evaluated after 13 days
Protocol: as §1

| SMILES | percentage damage caused to the plant, IPOHE ([1]; 1000 g/ha) | percentage damage caused to the plant, SETFA [2] | percentage damage caused to the plant, ECHCG [3] | percentage damage caused to the plant, ZEAMX [4] | percentage damage caused to the plant, AMAPA ([7]; 1000 g/ha) | percentage damage caused to the plant, AMARE ([8]; 1000 g/ha) | percentage damage caused to the plant, ECHCG ([9]; 1000 g/ha) | percentage damage caused to the plant, IPOHE ([10]; 1000 g/ha) | percentage damage caused to the plant, SETFA ([11]; 1000 g/ha) | percentage damage caused to the plant, ZEAMX ([12]; 1000 g/ha) | further results |
| --- | --- | --- | --- | --- | --- | --- | --- | --- | --- | --- | --- |
| CCn1c(-c2ccc(Cl)c(Cl)c2)c(C(=O)O)c(=O)c2c(Br)cccc21 [Compound 4, 5-bromo-2-(3,4-dichlorophenyl)-1-ethyl-4-oxo-quinoline-3-carboxylic acid] | 1 (1=0-20%) | 5 (5=81-100%) | 5 (5=81-100%) | 3 (3=41-60%) | 0 | 0 | 1 (1=0-20%) | 1 (1=0-20%) | 1 (1=0-20%) | 1 (1=0-20%) | percentage damage caused to the plant, AMARE ([5]; 1000 g/ha): 1 (1=0-20%); percentage damage caused to the plant, AMAPA ([6]; 1000 g/ha): 2 (2=21-40%) |
| CCn1c(-c2ccc(Cl)c(Cl)c2)c(C(=O)O)c(=O)c2cc(Cl)ccc21 [Compound 5, 6-chloro-2-(3,4-dichlorophenyl)-1-ethyl-4-oxo-quinoline-3-carboxylic acid] | 0 | 2 (2=21-40%) | 0 | 1 (1=0-20%) | 1 (1=0-20%) | 1 (1=0-20%) |  | 1 (1=0-20%) | 4 (4=61-80%) | 2 (2=21-40%) |  |
| CCn1c(-c2ccc(Cl)c(Cl)c2)c(C(=O)O)c(=O)c2cc(F)ccc21 [Compound 6, 2-(3,4-dichlorophenyl)-1-ethyl-6-fluoro-4-oxo-quinoline-3-carboxylic acid] | 0 | 5 (5=81-100%) | 5 (5=81-100%) | 0 | 3 (3=41-60%) | 1 (1=0-20%) | 4 (4=61-80%) | 3 (3=41-60%) | 4 (4=61-80%) | 4 (4=61-80%) |  |
| CCn1c(-c2ccc(Cl)c(Cl)c2)c(C(=O)O)c(=O)c2cc(C#N)ccc21 [Compound 7, 6-cyano-2-(3,4-dichlorophenyl)-1-ethyl-4-oxo-quinoline-3-carboxylic acid] | 1 (1=0-20%) | 5 (5=81-100%) | 5 (5=81-100%) | 3 (3=41-60%) | 4 (4=61-80%) | 3 (3=41-60%) |  | 2 (2=21-40%) | 4 (4=61-80%) | 3 (3=41-60%) |  |
| CCn1c(-c2ccc(Cl)c(Cl)c2)c(C(=O)O)c(=O)c2cc(Br)ccc21 [Compound 8, 6-bromo-2-(3,4-dichlorophenyl)-1-ethyl-4-oxo-quinoline-3-carboxylic acid] | 1 (1=0-20%) | 5 (5=81-100%) | 5 (5=81-100%) | 2 (2=21-40%) | 1 (1=0-20%) | 0 | 4 (4=61-80%) | 4 (4=61-80%) | 4 (4=61-80%) | 4 (4=61-80%) | percentage damage caused to the plant, AMARE ([5]; 1000 g/ha): 1 (1=0-20%); percentage damage caused to the plant, AMAPA ([6]; 1000 g/ha): 2 (2=21-40%) |
| CCn1c(-c2ccc(Cl)c(Cl)c2)c(C(=O)O)c(=O)c2cc(-c3ccc(F)cc3)ccc21 [Compound 9, 2-(3,4-dichlorophenyl)-1-ethyl-6-(4-fluorophenyl)-4-oxo-quinoline-3-carboxylic acid] | 1 (1=0-20%) | 4 (4=61-80%) | 3 (3=41-60%) | 1 (1=0-20%) | 2 (2=21-40%) | 2 (2=21-40%) | 0 | 2 (2=21-40%) | 0 | 0 |  |
| CCn1c(-c2ccc(Cl)c(Cl)c2)c(C(=O)O)c(=O)c2cc(C(N)=O)ccc21 [Compound 10, 6-carbamoyl-2-(3,4-dichlorophenyl)-1-ethyl-4-oxo-quinoline-3-carboxylic acid] | 0 | 0 | 0 | 2 (2=21-40%) | 4 (4=61-80%) | 2 (2=21-40%) |  | 1 (1=0-20%) | 4 (4=61-80%) | 2 (2=21-40%) |  |
| CCn1c(-c2ccc(Cl)c(Cl)c2)c(C(=O)O)c(=O)c2ccc(C(F)(F)F)cc21 [Compound 13, 2-(3,4-dichlorophenyl)-1-ethyl-4-oxo-7-(trifluoromethyl)quinoline-3-carboxylic acid] | 0 | 0 | 0 | 0 | 1 (1=0-20%) | 2 (2=21-40%) | 2 (2=21-40%) | 0 | 1 (1=0-20%) | 1 (1=0-20%) |  |
| CCn1c(-c2ccc(Cl)c(Cl)c2)c(C(=O)O)c(=O)c2cc(C(F)(F)F)ccc21 [Compound 16, 2-(3,4-dichlorophenyl)-1-ethyl-4-oxo-6-(trifluoromethyl)quinoline-3-carboxylic acid] | 1 (1=0-20%) | 5 (5=81-100%) | 5 (5=81-100%) | 1 (1=0-20%) | 0 | 0 | 4 (4=61-80%) | 2 (2=21-40%) | 4 (4=61-80%) | 3 (3=41-60%) | percentage damage caused to the plant, AMARE ([5]; 1000 g/ha): 1 (1=0-20%) |
| CCn1c(-c2ccc(Cl)c(Cl)c2)c(C(=O)O)c(=O)c2c(C#N)cccc21 [Compound 17, 5-cyano-2-(3,4-dichlorophenyl)-1-ethyl-4-oxo-quinoline-3-carboxylic acid] |  |  |  |  |  |  |  |  |  |  | percentage damage caused to the plant, IPOHE ([1]; 250 g/ha): 1* (1=0-20%); percentage damage caused to the plant, AMARE ([5]; 250 g/ha): 1* (1=0-20%); percentage damage caused to the plant, AMAPA ([6]; 250 g/ha): 1* (1=0-20%); percentage damage caused to the plant, AMAPA ([7]; 250 g/ha): 2* (2=21-40%); percentage damage caused to the plant, AMARE ([8]; 250 g/ha): 2* (2=21-40%); percentage damage caused to the plant, ECHCG ([9]; 250 g/ha): 1* (1=0-20%); percentage damage caused to the plant, IPOHE ([10]; 250 g/ha): 2* (2=21-40%); percentage damage caused to the plant, SETFA ([11]; 250 g/ha): 1* (1=0-20%); percentage damage caused to the plant, ZEAMX ([12]; 250 g/ha): 0* |
| CC(=O)c1cccc2c1c(=O)c(C(=O)O)cn2-c1ccc(OC(F)(F)F)cc1 [Compound 19, 5-acetyl-4-oxo-1-[4-(trifluoromethoxy)phenyl]quinoline-3-carboxylic acid] | 0 | 3 (3=41-60%) | 3 (3=41-60%) | 0 | 2 (2=21-40%) | 0 | 4 (4=61-80%) | 1 (1=0-20%) | 3 (3=41-60%) | 3 (3=41-60%) |  |
